Data: the supplement of paper PMC10702517
± gives the standard deviation.

How the values were obtained:
[1] = chemical recovery from spiked human plasma; higher = better extraction; conditions: pooled human plasma
[2] = chemical recovery into PDMS from spiked human plasma; higher = better extraction; conditions: pooled human plasma, extraction method: PES with PDMS
[3] = extraction method: PES+SPE (3 d PDMS equilibration then HLB SPE)
[4] = extraction method: SPE only (HLB 96-well)
[5] = extraction method: SPE only (HLB 96-well), PES comparison experiment
[6] = extraction method: solvent precipitation (ACN + hexane)

chemical recovery [1, 5] | chemical recovery into PDMS ([2]; equilibration time (d): 1) | chemical recovery into PDMS ([2]; equilibration time (d): 3) | chemical recovery into PDMS ([2]; equilibration time (d): 6) | Compound | chemical recovery [1, 3] | chemical recovery [1, 4] | chemical recovery [1, 6]
19.8 ± 4.6% | 45.3 ± 4.8% | 48.5 ± 4.6% | 46.7 ± 2.5% | CC(C)c1ccc2sc3ccccc3c(=O)c2c1 [2-Isopropylthioxanthone] | – | 33.5 ± 9.6% | –
– | – | 0.00395 ± 0.0068% | – | O=c1[nH]cc(F)c(=O)[nH]1 [5-Fluorouracil] | 0.502 ± 0.11% | 0.392 ± 0.68% | –
51.1 ± 7.7% | 7.94 ± 0.8% | 12.2 ± 1.3% | 13.1 ± 1.1% | CC(=O)[C@@]1(O)CC[C@H]2[C@@H]3CCC4=CC(=O)CC[C@]4(C)[C@H]3CC[C@@]21C [17alpha-Hydroxyprogesterone] | – | – | –
33.5 ± 7.2% | 24.8 ± 3.2% | 11 ± 4% | 13.3 ± 4.5% | N#CSCSc1nc2ccccc2s1 [(Benzothiazol-2-ylthio)methyl thiocyanate] | – | – | –
17.7 ± 2.9% | 70 ± 4.1% | 79.7 ± 8.8% | 80.6 ± 8% | c1ccc2cc3ccccc3cc2c1 [Anthracene] | – | – | –
– | – | – | 0.508 ± 1% | CCCCCCCCCCCCCC[N+](C)(C)Cc1ccccc1 [Benzyldimethyltetradecylammonium] | – | 66.8 ± 24% | –
39.3 ± 5.3% | 42.4 ± 3% | 44 ± 1.3% | 45.4 ± 3.2% | CCC(=O)OCC(=O)[C@@]1(OC(=O)CC)[C@@H](C)C[C@H]2[C@@H]3CCC4=CC(=O)C=C[C@]4(C)[C@@]3(F)[C@@H](O)C[C@@]21C [Betamethasone dipropionate] | – | – | –
2.88 ± 2% | 20.3 ± 6.3% | 23.2 ± 9.8% | 17.8 ± 2.9% | CC1C(C)(C)C2=C(C(=O)CCC2)C1(C)C (centres undefined) [Cashmeran] | – | – | –
36.1 ± 7.8% | – | – | 36.1 ± 0.56% | CC=CC(=O)N(CC)c1ccccc1C [Crotamiton] | – | 37 ± 4.8% | 56.3 ± 3.9%
– | 25.7 ± 3.8% | 3.03 ± 5.2% | 5.33 ± 4.6% | CCCCCCCCn1sc(Cl)c(Cl)c1=O [DCOIT] | – | 27.3 ± 3.7% | –
– | 75.4 ± 13% | 90.3 ± 7% | 87.5 ± 2.9% | O=C1C2CC3C1C1(Cl)C(Cl)C4(Cl)C2C3C1(Cl)C4(Cl)Cl (centres undefined) [Endrinketone] | – | – | –
31.5 ± 6% | 47.1 ± 4.2% | 50.6 ± 5.3% | 48 ± 3.2% | CC(C)OC(=O)C(C)(C)Oc1ccc(C(=O)c2ccc(Cl)cc2)cc1 [Fenofibrate] | – | – | –
– | 52.1 ± 2.8% | 54.3 ± 4.4% | 52.2 ± 7.9% | CCOC(=O)NCCOc1ccc(Oc2ccccc2)cc1 [Fenoxycarb] | – | – | 72 ± 7.2%
– | 33.8 ± 6.6% | 34.9 ± 2.3% | 42.6 ± 7% | CC(=O)C1(C)CC2=C(CCCC2(C)C)CC1C (centres undefined) [ISO E Super] | – | 2.41 ± 2.6% | –
– | 4.8 ± 8.3% | – | – | CC1=CC(=O)CC(C)(C)C1 [Isophorone] | – | 0.623 ± 0.28% | –
44.5 ± 8.6% | 41.5 ± 4.3% | 46.8 ± 1.9% | 43.4 ± 1.5% | CC(=O)O[C@]1(C(C)=O)CC[C@H]2[C@@H]3C[C@H](C)C4=CC(=O)CC[C@]4(C)[C@H]3CC[C@@]21C [Medroxyprogesteroneacetate] | – | – | –
– | – | – | 0.002 ± 0.0035% | CN(C)C(=N)NC(=N)N [Metformin] | 1.5 ± 0.32% | 2.12 ± 0.71% | 83.3 ± 12%
32.8 ± 7.8% | 22.4 ± 3% | 29.4 ± 3.4% | 32.6 ± 2.6% | C[C@@H]1C[C@H]2[C@@H]3CCC4=CC(=O)C=C[C@]4(C)[C@@]3(Cl)[C@@H](O)C[C@]2(C)[C@@]1(OC(=O)c1ccco1)C(=O)CCl [Mometasone fuorate] | – | – | –
39.4 ± 7.1% | – | – | 0.000993 ± 0.0017% | CCCCCCCCCCN(C)C [N,N-Dimethyldecylamine] | – | – | –
– | 62.5 ± 6.4% | 65.5 ± 8% | 65.4 ± 1.9% | CCCCC(CC)COC(=O)C(C#N)=C(c1ccccc1)c1ccccc1 (centres undefined) [Octocrylene] | 73.7 ± 6% | 2.21 ± 0.76% | 59.8 ± 6.2%

Compound | chemical recovery [1, 5] | chemical recovery into PDMS ([2]; equilibration time (d): 1) | chemical recovery into PDMS ([2]; equilibration time (d): 3) | chemical recovery into PDMS ([2]; equilibration time (d): 6) | chemical recovery [1, 3] | chemical recovery [1, 4] | chemical recovery [1, 6]
Nc1ccccc1-c1ccccc1 [2-Aminobiphenyl] | 27.7 ± 4.4% | 14.2 ± 6.8% | 14 ± 7.3% | – | 17.3 ± 3.9% | 22.6 ± 0.6% | 2.86 ± 5%
Clc1ccc(C(c2ccc(Cl)cc2)C(Cl)Cl)cc1 [4,4-DDD] | – | 1.61 ± 0.67% | 1.42 ± 0.086% | 1.39 ± 0.11% | – | – | –
c1ccc2cc3c(cc2c1)-c1cccc2cccc-3c12 [Benzo(k)fluoranthene] | – | – | 92.5 ± 5.6% | 93.8 ± 18% | – | 1.23 ± 0.43% | 50.7 ± 1.6%
O=S(=O)(c1ccc(Cl)cc1)c1ccc(Cl)cc1 [Bis(4-chlorophenyl)sulfone] | – | 41.4 ± 2.9% | – | 39.6 ± 14% | – | 4.65 ± 1.5% | –
CC(=O)c1cc(C(C)(C)C)cc2c1CCC2(C)C [Celestolide] | – | 33.2 ± 0.97% | 37.6 ± 3.8% | 34.7 ± 3.6% | – | 1.5 ± 0.73% | 76.6 ± 27%
O=P1(N(CCCl)CCCl)NCCCO1 (centres undefined) [Cyclophosphamide] | 55 ± 4.7% | 1.55 ± 2.7% | 2.5 ± 4.3% | 6.21 ± 5.4% | 49.6 ± 4.1% | 41 ± 4% | 70.9 ± 3.3%
CCCCOP(=O)(O)OCCCC [Di-n-butyl phosphate] | – | 25.9 ± 1.5% | 31.1 ± 3.2% | 30.9 ± 1.4% | 42.2 ± 5% | 33.5 ± 3.3% | 67.8 ± 3.6%
CCOP(=S)(OCC)SCSP(=S)(OCC)OCC [Ethion] | 31.7 ± 5.8% | 48.1 ± 8.9% | 47.4 ± 4.3% | 46.7 ± 1.1% | – | 37.2 ± 9.9% | –
COC(=O)N(C(=O)N1CO[C@@]2(C(=O)OC)Cc3cc(Cl)ccc3C2=N1)c1ccc(OC(F)(F)F)cc1 [Indoxacarb] | 38.3 ± 8.6% | 52.6 ± 5.8% | 52 ± 9.1% | 53.2 ± 3.8% | – | 61.3 ± 15% | –
CC(C)Oc1cc(-n2nc(C(C)(C)C)oc2=O)c(Cl)cc1Cl [Oxadiazone] | 34.7 ± 5.2% | 39.1 ± 3.5% | 40.4 ± 3.1% | 37.8 ± 2.7% | – | 43.6 ± 4.8% | –
O=C(O)C(F)(F)C(F)(F)C(F)(F)C(F)(F)C(F)(F)C(F)(F)F [Perfluoroheptanoic acid] | 39.8 ± 8.7% | 0.0266 ± 0.023% | 0.00647 ± 0.017% | 0.0383 ± 0.0028% | 34.1 ± 2.9% | 27.1 ± 4.2% | 85.3 ± 16%
CC(=O)c1cc2c(cc1C)C(C)(C)C(C)C2(C)C (centres undefined) [Phantolide] | – | 32.9 ± 0.97% | 37.4 ± 3.8% | 34.1 ± 3.6% | – | – | –
